# Results as given in ChEMBL document CHEMBL1138236, “Novel aminophenyl benzamide-type histone deacetylase inhibitors with enhanced potency and selectivity” (J Med Chem, 2007).
# Columns and labels:
# [1] = target: Histone deacetylase 1 (Homo sapiens, UniProt Q13547)
# Description: Inhibition of human recombinant HDAC1
# [2] = target: Histone deacetylase 2 (Homo sapiens, UniProt Q92769)
# Description: Inhibition of human recombinant HDAC2
# [3] = target: Histone deacetylase 3 (Homo sapiens, UniProt O15379); test: Inhibition of human recombinant HDAC3
# [4] = system: HCT-116; test: Cytotoxicity against human HCT116 cells by MTT assay; assay type: functional, cell-based
# [5] = Cytotoxicity against human mammary epithelial cells by MTT assay; assay type: cell-based; conditions: Epithelial cell
# [6] = target: T1, Histone deacetylase 8 (Homo sapiens, UniProt Q9BY41); test: Inhibition of human recombinant HDAC8
# T1 sequence (Q9BY41 whole entry): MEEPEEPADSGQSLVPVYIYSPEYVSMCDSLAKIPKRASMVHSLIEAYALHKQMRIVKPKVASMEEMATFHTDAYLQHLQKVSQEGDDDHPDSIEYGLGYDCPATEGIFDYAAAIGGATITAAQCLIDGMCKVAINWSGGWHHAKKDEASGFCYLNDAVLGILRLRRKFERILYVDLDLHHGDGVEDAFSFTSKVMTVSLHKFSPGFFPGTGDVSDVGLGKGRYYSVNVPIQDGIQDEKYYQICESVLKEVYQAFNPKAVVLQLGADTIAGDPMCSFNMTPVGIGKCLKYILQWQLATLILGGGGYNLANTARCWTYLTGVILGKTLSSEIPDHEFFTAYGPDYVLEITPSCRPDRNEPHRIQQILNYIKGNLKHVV
# [7] = target: Histone deacetylase; test: Inhibition of HDAC in 293T cells; assay type: cell-based, Homo sapiens
# Histone deacetylase 1, sequence (Q13547 whole entry): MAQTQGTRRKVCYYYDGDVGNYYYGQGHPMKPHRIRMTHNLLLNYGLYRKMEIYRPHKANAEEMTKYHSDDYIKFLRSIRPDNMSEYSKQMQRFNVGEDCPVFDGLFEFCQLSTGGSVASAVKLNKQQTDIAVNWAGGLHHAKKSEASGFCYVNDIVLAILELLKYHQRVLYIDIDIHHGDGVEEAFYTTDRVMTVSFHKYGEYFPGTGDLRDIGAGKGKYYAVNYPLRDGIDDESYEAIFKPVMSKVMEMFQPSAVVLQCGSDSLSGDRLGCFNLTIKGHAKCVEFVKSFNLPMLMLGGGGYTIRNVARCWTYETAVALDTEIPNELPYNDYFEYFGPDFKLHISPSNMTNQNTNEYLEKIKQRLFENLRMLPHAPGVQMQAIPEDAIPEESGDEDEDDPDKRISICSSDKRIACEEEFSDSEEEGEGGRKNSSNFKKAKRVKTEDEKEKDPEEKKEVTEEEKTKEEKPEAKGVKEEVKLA
# Histone deacetylase 3, sequence (O15379 whole entry): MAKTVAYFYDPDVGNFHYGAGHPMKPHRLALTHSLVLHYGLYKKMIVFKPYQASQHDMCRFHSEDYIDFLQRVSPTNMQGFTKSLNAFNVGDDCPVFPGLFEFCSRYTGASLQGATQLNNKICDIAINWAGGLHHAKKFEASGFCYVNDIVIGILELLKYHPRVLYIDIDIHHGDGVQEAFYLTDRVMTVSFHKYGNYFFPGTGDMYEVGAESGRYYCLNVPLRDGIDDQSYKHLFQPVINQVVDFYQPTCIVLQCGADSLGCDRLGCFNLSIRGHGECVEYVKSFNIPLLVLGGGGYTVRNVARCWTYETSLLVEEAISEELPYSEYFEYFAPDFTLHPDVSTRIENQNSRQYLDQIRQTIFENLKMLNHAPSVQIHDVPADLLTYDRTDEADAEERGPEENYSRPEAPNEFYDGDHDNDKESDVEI
# Histone deacetylase 2, sequence (Q92769 whole entry): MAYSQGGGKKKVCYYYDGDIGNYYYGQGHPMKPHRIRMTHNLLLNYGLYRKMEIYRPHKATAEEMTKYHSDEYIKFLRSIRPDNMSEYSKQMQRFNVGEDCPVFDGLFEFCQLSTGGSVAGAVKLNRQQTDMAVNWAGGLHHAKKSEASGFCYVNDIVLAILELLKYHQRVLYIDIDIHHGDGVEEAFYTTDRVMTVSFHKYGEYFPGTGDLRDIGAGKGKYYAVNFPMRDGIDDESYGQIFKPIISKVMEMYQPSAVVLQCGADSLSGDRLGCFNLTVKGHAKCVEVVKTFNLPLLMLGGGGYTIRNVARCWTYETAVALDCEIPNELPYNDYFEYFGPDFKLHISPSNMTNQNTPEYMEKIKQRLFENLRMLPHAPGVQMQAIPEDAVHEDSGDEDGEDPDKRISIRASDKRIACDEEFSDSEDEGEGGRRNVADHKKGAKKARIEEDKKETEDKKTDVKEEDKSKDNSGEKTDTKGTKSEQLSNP
SMILES,IC50 [1] [nM],IC50 [2] [nM],IC50 [3] [µM],IC50 [6] [µM],IC50 [7] [µM],IC50 [4] [nM],IC50 [5] [µM]
COc1ccc(NCc2ccc(C(=O)Nc3cc(-c4ccoc4)ccc3N)cc2)cc1OC,50,70,,,,,
COc1ccc(NCc2ccc(C(=O)Nc3cc(-c4cccs4)ccc3O)cc2)cc1OC,40,60,,,,,
Nc1ccc(-c2cccs2)cc1NC(=O)c1ccc(CNC(=O)OCc2cccnc2)cc1,,100,,,,,
COc1ccc(NCc2ccc(C(=O)Nc3cc(-c4ccccc4)ccc3N)cc2)cc1OC,,100,,,,,
Nc1ccc(-c2cccs2)cc1NC(=O)c1ccc2nccnc2c1,60,200,> 20,> 20,0.9,900,26
COc1ccc(NCc2ccc(C(=O)Nc3cc(-c4ccsc4)ccc3N)cc2)cc1OC,,60,,,,,
O=C(/C=C/c1ccc(CN(CCO)CCc2c[nH]c3ccccc23)cc1)NO [DACINOSTAT],,,,,,< 50,1
CC(=O)Nc1ccc(C(=O)Nc2ccccc2N)cc1 [TACEDINALINE],,,,,,4000,> 50

# The next lines start with results.
IC50 [1] [nM],IC50 [2] [nM],IC50 [3] [µM],IC50 [6] [µM],IC50 [7] [µM],SMILES,IC50 [4] [nM],IC50 [5] [µM]
440,500,,,,COc1ccc(NCc2ccc(C(=O)Nc3ccccc3N)cc2)cc1OC,,
> 10000,> 10000,,,,COc1ccc(NCc2ccc(C(=O)Nc3ccc(-c4cccs4)cc3N)cc2)cc1OC,,
50,200,> 20,> 20,0.15,COc1ccc(C(=O)Nc2cc(-c3cccs3)ccc2N)cc1,400,> 50
,200,,,,COc1ccc(NCc2ccc(C(=O)Nc3ccccc3O)cc2)cc1OC,,
,,,> 20,,CC(=O)Nc1ccc(C(=O)Nc2cc(-c3cccs3)ccc2N)cc1,500,> 50
2000,2000,> 20,> 20,3,Nc1ccccc1NC(=O)c1ccc2nccnc2c1,11000,> 50
2000,900,1.4,> 20,3,COc1ccc(C(=O)Nc2ccccc2N)cc1,10000,> 50
50,80,,,,COc1ccc(NCc2ccc(C(=O)Nc3cc(-c4cccs4)ccc3N)cc2)cc1OC,,
> 10000,> 10000,,,,COc1ccc(NCc2ccc(C(=O)Nc3cc(-c4cc5ccccc5s4)ccc3N)cc2)cc1OC,,
